Assay results reported in paper PMC9821108, “Biochemical and Structural Analyses Shed Light on the Mechanisms of RadD DNA Binding and Its ATPase from Escherichia coli” (International Journal of Molecular Sciences, 2023).
Each block holds one molecule with its values, some of them ahead of it.

Columns and labels:
[1] = target: T1, RadD (Escherichia coli, UniProt P33919); test: X-ray crystal structure, […] Å; type: binding; settings: co-crystallised with 5 mM ATP and 5 mM MgCl2, ATP hydrolysed to ADP in the crystal; site between RD1 and RD2
T1 construct: recombinant RadD from RadD-pET-28a / RadD-pGEX-6p-1 plasmids expressed in E. coli; full-length with RD1, RD2, ZFD, CTD
T1 sequence (P33919 1-586): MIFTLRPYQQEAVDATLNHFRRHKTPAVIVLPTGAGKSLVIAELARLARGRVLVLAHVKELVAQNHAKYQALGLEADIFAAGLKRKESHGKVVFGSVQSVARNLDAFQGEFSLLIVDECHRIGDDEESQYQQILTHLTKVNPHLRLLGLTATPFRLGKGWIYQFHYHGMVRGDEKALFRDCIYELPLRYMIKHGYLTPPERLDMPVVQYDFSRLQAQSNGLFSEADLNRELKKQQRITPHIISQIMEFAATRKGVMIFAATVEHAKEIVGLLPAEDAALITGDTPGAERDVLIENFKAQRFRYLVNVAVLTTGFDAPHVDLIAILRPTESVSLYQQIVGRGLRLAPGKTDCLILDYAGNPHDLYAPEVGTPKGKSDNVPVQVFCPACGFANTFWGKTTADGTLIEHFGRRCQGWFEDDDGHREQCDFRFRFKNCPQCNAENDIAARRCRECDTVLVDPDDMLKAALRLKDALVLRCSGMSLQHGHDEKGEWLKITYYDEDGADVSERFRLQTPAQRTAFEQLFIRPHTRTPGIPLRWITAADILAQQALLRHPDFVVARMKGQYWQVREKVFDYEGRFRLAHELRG

[2] = target: T2, RadD (Escherichia coli, UniProt P33919, K68A); test: malachite green phosphate release ATPase assay; type: biochemical; settings: 0.375 μM enzyme, 1 mM ATP; buffer as above
T2 construct: recombinant RadD from RadD-pET-28a / RadD-pGEX-6p-1 plasmids expressed in E. coli; full-length with RD1, RD2, ZFD, CTD

[3] = target: T3, RadD (Escherichia coli, UniProt P33919, R343A); test: malachite green phosphate release ATPase assay; type: biochemical; settings: 0.375 μM enzyme, 1 mM ATP; buffer as above
T3 construct: recombinant RadD from RadD-pET-28a / RadD-pGEX-6p-1 plasmids expressed in E. coli; full-length with RD1, RD2, ZFD, CTD

[4] = target: T4, RadD (Escherichia coli, UniProt P33919, R6A); test: malachite green phosphate release ATPase assay; type: biochemical; settings: 0.375 μM enzyme, 1 mM ATP; buffer as above
T4 construct: recombinant RadD from RadD-pET-28a / RadD-pGEX-6p-1 plasmids expressed in E. coli; full-length with RD1, RD2, ZFD, CTD

[5] = target: T5, RadD (Escherichia coli, UniProt P33919, G36E); test: malachite green phosphate release ATPase assay; type: biochemical; settings: 0.375 μM enzyme, 1 mM ATP; buffer as above
T5 construct: recombinant RadD from RadD-pET-28a / RadD-pGEX-6p-1 plasmids expressed in E. coli; full-length with RD1, RD2, ZFD, CTD

[6] = target: T6, RadD (Escherichia coli, UniProt P33919, G34E); test: malachite green phosphate release ATPase assay; type: biochemical; settings: 0.375 μM enzyme, 1 mM ATP; buffer as above
T6 construct: recombinant RadD from RadD-pET-28a / RadD-pGEX-6p-1 plasmids expressed in E. coli; full-length with RD1, RD2, ZFD, CTD

[7] = target: T7, RadD (Escherichia coli, UniProt P33919, K37A); test: malachite green phosphate release ATPase assay; type: biochemical; settings: 0.375 μM enzyme, 1 mM ATP; buffer as above
T7 construct: recombinant RadD from RadD-pET-28a / RadD-pGEX-6p-1 plasmids expressed in E. coli; full-length with RD1, RD2, ZFD, CTD

[8] = target: T8, RadD (Escherichia coli, UniProt P33919, D117R); test: malachite green phosphate release ATPase assay; type: biochemical; settings: 0.375 μM enzyme, 1 mM ATP; buffer as above
T8 construct: recombinant RadD from RadD-pET-28a / RadD-pGEX-6p-1 plasmids expressed in E. coli; full-length with RD1, RD2, ZFD, CTD

[9] = target: T1, RadD; test: X-ray crystal structure, […] Å; type: binding; settings: co-crystallised with 5 mM ATPγS, no Mg added; site between RD1 and RD2
[10] = target: RadD CTD (Escherichia coli) (UniProt P33919); test: EMSA; settings: 20 mM Bis-Tris pH 6.5, 50 mM NaCl, 15% glycerol, 10 mM beta-mercaptoethanol, 37 C 30 min, 33 nM HJ, 0-20 uM RadD; 8% native PAGE in 0.5x TBE; text says …
[11] = target: RadD ZFD (Escherichia coli) (UniProt P33919); test: EMSA; settings: 20 mM Bis-Tris pH 6.5, 50 mM NaCl, 15% glycerol, 10 mM beta-mercaptoethanol, 37 C 30 min, 33 nM HJ, 0-20 uM RadD; 8% native PAGE in 0.5x TBE; text says …
[12] = substrate: Nc1ncnc2c1ncn2[C@@H]1O[C@H](COP(=O)(O)OP(=O)(O)OP(=O)(O)O)[C@@H](O)[C@H]1O; test: malachite green phosphate release ATPase assay; type: biochemical, Escherichia coli; settings: 0.4 μM RadD, 20 mM Hepes pH 7.5, 150 mM NaCl, 3 mM MgCl2, 20 °C, 30 min, no DNA or SSB

T8 sequence (P33919 whole entry D117R): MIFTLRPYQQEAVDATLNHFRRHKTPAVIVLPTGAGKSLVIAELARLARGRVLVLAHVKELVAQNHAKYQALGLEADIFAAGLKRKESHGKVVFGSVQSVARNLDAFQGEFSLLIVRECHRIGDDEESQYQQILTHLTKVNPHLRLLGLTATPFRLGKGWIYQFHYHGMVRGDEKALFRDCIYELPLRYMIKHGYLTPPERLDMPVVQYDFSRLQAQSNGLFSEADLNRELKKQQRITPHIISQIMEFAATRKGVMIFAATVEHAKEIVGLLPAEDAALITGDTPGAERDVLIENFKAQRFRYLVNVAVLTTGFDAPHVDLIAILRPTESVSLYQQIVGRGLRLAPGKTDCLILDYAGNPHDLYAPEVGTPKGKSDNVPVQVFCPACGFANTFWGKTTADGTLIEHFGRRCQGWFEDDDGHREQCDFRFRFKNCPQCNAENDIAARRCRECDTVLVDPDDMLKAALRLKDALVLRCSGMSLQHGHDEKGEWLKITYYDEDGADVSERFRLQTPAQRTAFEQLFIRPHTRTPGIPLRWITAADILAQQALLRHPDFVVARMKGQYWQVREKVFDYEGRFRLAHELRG
T2 sequence (P33919 whole entry K68A): as the sequence (P33919 whole entry D117R) above, with K68A, R117D counted along it
T7 sequence (P33919 whole entry K37A): as the sequence (P33919 whole entry D117R) above, with K37A, R117D counted along it
T5 sequence (P33919 whole entry G36E): as the sequence (P33919 whole entry D117R) above, with G36E, R117D counted along it
T6 sequence (P33919 whole entry G34E): as the sequence (P33919 whole entry D117R) above, with G34E, R117D counted along it
T4 sequence (P33919 whole entry R6A): as the sequence (P33919 whole entry D117R) above, with R6A, R117D counted along it
T3 sequence (P33919 whole entry R343A): as the sequence (P33919 whole entry D117R) above, with R117D, R343A counted along it

X-ray crystal structure, 2.7 Å [1]: RadD/ADP PDB: 8H5Y
Molecule: Nc1ncnc2c1ncn2[C@@H]1O[C@H](COP(=O)(O)OP(=O)(O)O)[C@@H](O)[C@H]1O [ADP]

Molecule: Nc1ncnc2c1ncn2[C@@H]1O[C@H](COP(=O)(O)OP(=O)(O)OP(=O)(O)O)[C@@H](O)[C@H]1O [ATP]
ATPase activity [2]: The ATPase activity of mutant K68A is three times that of the wild-type | ATPase activity [3]: mutant G34E, G36E, K37A, D117R, and R343A lost their ATPase activity | ATPase activity [4]: mutants R6A and N9A were not significantly different from the wild-type | ATPase activity [5]: mutant G34E, G36E, K37A, D117R, and R343A lost their ATPase activity | ATPase activity [6]: mutant G34E, G36E, K37A, D117R, and R343A lost their ATPase activity | ATPase activity [7]: mutant G34E, G36E, K37A, D117R, and R343A lost their ATPase activity | ATPase activity [8]: mutant G34E, G36E, K37A, D117R, and R343A lost their ATPase activity

Molecule: Nc1ncnc2c1ncn2[C@@H]1O[C@H](COP(=O)(O)OP(=O)(O)OP(O)(O)=S)[C@@H](O)[C@H]1O [ATPγS]
X-ray crystal structure, 3.0 Å [9]: RadD/ATPγS PDB: 8H5Z

Molecule: CCGCTACCAGTGATCACCAATGGATTGCTAGGACATCTTTGCCCACCTGCAGGTTCACCC / TGGGTGAACCTGCAGGTGGGCAAAGATGTCCTAGCAATCCATTGTCTATGACGTCAAGCTC / GAGCTTGACGTCATAGACAATGGATTGCTAGGACATCTTTGCCGTCTTGTCAATATCGGC / TGCCGATATTGACAAGACGGCAAAGATGTCCTAGCAATCCATTGGTGATCACTGGTAGCGG [Holliday junction (HJ)]
binding signal [10]: 47 % of WT | binding signal [11]: 43 % of WT

B1: RadD (Escherichia coli K-12) (protein)
chain: T1 sequence (P33919 1-586)
notes: recombinant RadD from RadD-pET-28a / RadD-pGEX-6p-1 plasmids expressed in E. coli; full-length with RD1, RD2, ZFD, CTD
Km [12]: 3.48 mM
